Experimental data reported in patent US8012979B2, “Compounds and their uses 707” (AstraZeneca AB, priority 2007, dated 2011).

These molecules were tested against T1, human active recombinant p38α-6His tagged (Homo sapiens, UniProt Q16539) (assay: p38 Alpha Enzyme Assay (AlphaScreen, biotinylated-ATF2 substrate)). Details: pre-incubated 4 hours at 37° C., reaction initiated with ATP; 0.5 nM enzyme; read-out: p38 pIC50 (converted).
T1 construct: 6His
Type: biochemical
Procedure: The ability of the compounds of formula (I) to inhibit p38 kinase may be determined using the following biological assay:
Enzyme assays were performed in polypropylene 96 well plates. The following solutions were added to each well; 10 μL of compound dilutions in assay buffer (20 mM HEPES pH 7.4, containing 20 mM magnesium acetate, 0.005% (w/v) Tween-20, 10 mM DTT) containing 1% (v/v) DMSO or assay buffer containing 1% (v/v) DMSO alone, 70 μL of assay buffer containing 36 nM substrate (biotinylated-ATF2) and 10 μL of an appropriate dilution of human active recombinant p38α-6His tagged. Depending on batch of p38, an appropriate dilution was typically a 5 nM solution to give a final enzyme concentration of 0.5 nM. At this stage, background control wells also received 50 μL of AlphaScreen quench buffer (10 mM HEPES pH 7.4 containing 100 mM EDTA, 0.2% (w/v) bovine serum albumin). The plate was covered, pre-incubated for 4 hours at 37° C. and the enzyme reaction initiated by addition of 10 μL 1 mM ATP. After incubation for a further 45 minutes at 37° C., the reaction was stopped by addition of 50 μL quench reagent and 50 μL of the quenched reaction mixture transferred to an opaque, white 96-well plate. Detection reagent, 25 μL of 10 mM HEPES pH 7.4 containing 100 mM EDTA, 0.2% (w/v) bovine serum albumin, 0.3 nM anti phosphoATF2 antibody and 25 μg/mL of ‘AlphaScreen protein A acceptor and donor beads’ (PerkinElmer Inc.), was added to all wells in a darkened room, the plate sealed and left in the dark for at least 5 hours before AlphaScreen readings were taken using a Perkin Elmer EnVision reader. Total, uninhibited activity was determined from assays performed in each assay plate. The mean control in the absence of p38 activity was subtracted from each well. Data were expressed as percent inhibition of total activity using equation 1. Percent Inhibition=100*(1−Test/Control) Eq.1 Where . . . . • Test=p38 kinase activity in the presence of compound • Control=p38 kinase activity in the absence of compound.
pIC50 is defined as the logarithm of the reciprocal of the concentration of compound required for 50% reduction in total p38 kinase activity.

T1 sequence (Q16539 whole entry): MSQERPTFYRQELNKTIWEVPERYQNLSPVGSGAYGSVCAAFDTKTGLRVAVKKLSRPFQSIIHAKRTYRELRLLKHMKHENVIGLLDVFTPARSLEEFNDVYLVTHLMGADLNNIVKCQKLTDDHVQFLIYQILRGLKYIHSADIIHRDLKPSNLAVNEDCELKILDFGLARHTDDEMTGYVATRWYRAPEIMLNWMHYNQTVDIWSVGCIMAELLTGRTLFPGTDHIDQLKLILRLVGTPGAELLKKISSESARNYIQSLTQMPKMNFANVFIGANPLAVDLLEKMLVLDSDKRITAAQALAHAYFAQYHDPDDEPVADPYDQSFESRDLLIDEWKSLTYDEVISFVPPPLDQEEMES

IC50 | Structure (SMILES)
1.58 nM | Cc1ccc(C(=O)NC2CC2)cc1-c1ccc2c(=O)n(Cc3ccc(OCCCN(C)C)nc3)ccc2c1 [Example 29, N-Cyclopropyl-3-(2-((6-(3-(dimethylamino)propoxy)pyridin-3-yl)methyl)-1-oxo-1,2-dihydroisoquinolin-6-yl)-4-methylbenzamide]
1 nM | Cc1ccc(C(=O)NC2CC2)cc1-c1ccc2c(=O)n(Cc3ccc(OCCN(C)C)nc3)ccc2c1 [Example 30, N-Cyclopropyl-3-(2-((6-(2-(dimethylamino)ethoxy)pyridin-3-yl)methyl)-1-oxo-1,2-dihydroisoquinolin-6-yl)-4-methylbenzamide]
0.631 nM | Cc1ccc(C(=O)NC2CC2)cc1-c1ccc2c(=O)n(Cc3ccc(OCCN4CCCC4)nc3)ccc2c1 [Example 31, N-Cyclopropyl-4-methyl-3-(1-oxo-2-((6-(2-(pyrrolidin-1-yl)ethoxy)pyridin-3-yl)methyl)-1,2-dihydroisoquinolin-6-yl)benzamide]
0.501 nM | Cc1ccc(C(=O)NC2CC2)cc1-c1ccc2c(=O)n(Cc3ccc(OCCN(C)C)cc3)ccc2c1 [Example 32, N-Cyclopropyl-3-(2-(4-(2-(dimethylamino)ethoxy)benzyl)-1-oxo-1,2-dihydroisoquinolin-6-yl)-4-methylbenzamide]
2 nM | Cc1ccc(C(=O)NC2CC2)cc1-c1ccc2c(=O)n(Cc3cccc(OCCN4CCCC4)c3)ccc2c1 [Example 33, N-Cyclopropyl-4-methyl-3-{1-oxo-2-[3-(2-pyrrolidin-1-ylethoxy)benzyl]-1,2-dihydroisoquinolin-6-yl}benzamide]
2.51 nM | CNCCOc1cccc(Cn2ccc3cc(-c4cc(C(=O)NC5CC5)ccc4C)ccc3c2=O)c1 [Example 34, N-Cyclopropyl-4-methyl-3-(2-{3-[2-(methylamino)ethoxy]benzyl}-1-oxo-1,2-dihydroisoquinolin-6-yl)benzamide]
2 nM | Cc1ccc(C(=O)NC2CC2)cc1-c1ccc2c(=O)n(Cc3cccc(OCCNCCO)c3)ccc2c1 [Example 35, N-Cyclopropyl-3-[2-(3-{2-[(2-hydroxyethyl)amino]ethoxy}benzyl)-1-oxo-1,2-dihydroisoquinolin-6-yl]-4-methylbenzamide]
0.398 nM | CNCCOc1ccc(Cn2ccc3cc(-c4cc(C(=O)NC5CC5)ccc4C)ccc3c2=O)cc1 [Example 36, N-Cyclopropyl-4-methyl-3-(2-(4-(2-(methylamino)ethoxy)benzyl)-1-oxo-1,2-dihydroisoquinolin-6-yl)benzamide]
3.98 nM | Cc1ccc(C(=O)NC2CC2)cc1-c1ccc2c(=O)n(CC3CC3)cc(C(=O)N3CC[C@@H](N)C3)c2c1 [Example 37, (R)-3-(4-(3-Aminopyrrolidine-1-carbonyl)-2-(cyclopropylmethyl)-1-oxo-1,2-dihydroisoquinolin-6-yl)-N-cyclopropyl-4-methylbenzamide]
3.98 nM | Cc1ccc(C(=O)NC2CC2)cc1-c1ccc2c(=O)n(CC3CC3)cc(C(=O)NC3CCN(C)CC3)c2c1 [Example 38, 6-(5-(Cyclopropylcarbamoyl)-2-methylphenyl)-2-(cyclopropylmethyl)-N-(1-methylpiperidin-4-yl)-1-oxo-1,2-dihydroisoquinoline-4-carboxamide]
5.01 nM | Cc1ccc(C(=O)NC2CC2)cc1-c1ccc2c(=O)n(CC3CC3)cc(C(=O)N3CCN(C)CC3)c2c1 [Example 39, N-Cyclopropyl-3-(2-(cyclopropylmethyl)-4-(4-methylpiperazine-1-carbonyl)-1-oxo-1,2-dihydroisoquinolin-6-yl)-4-methylbenzamide]
3.98 nM | Cc1ccc(C(=O)NC2CC2)cc1-c1ccc2c(=O)n(CC3CC3)cc(C(=O)NCCN(C)C)c2c1 [Example 40, 6-(5-(Cyclopropylcarbamoyl)-2-methylphenyl)-2-(cyclopropylmethyl)-N-(2-(dimethylamino)ethyl)-1-oxo-1,2-dihydroisoquinoline-4-carboxamide]
1.58 nM | Cc1ccc(C(=O)NC2CC2)cc1-c1ccc2c(=O)n(CC3CC3)cc(C(=O)NC3CCNCC3)c2c1 [Example 41, 6-(5-(Cyclopropylcarbamoyl)-2-methylphenyl)-2-(cyclopropylmethyl)-1-oxo-N-(piperidin-4-yl)-1,2-dihydroisoquinoline-4-carboxamide]
1.26 nM | Cc1ccc(C(=O)NC2CC2)cc1-c1ccc2c(=O)n(CC3CC3)cc(C(=O)N3CCC(N)CC3)c2c1 [Example 42, 3-(4-(4-Aminopiperidine-1-carbonyl)-2-(cyclopropylmethyl)-1-oxo-1,2-dihydroisoquinolin-6-yl)-N-cyclopropyl-4-methylbenzamide]
5.01 nM | Cc1ccc(C(=O)NC2CC2)cc1-c1ccc2c(=O)n(CC3CC3)cc(C(=O)N3CC[C@H](N)C3)c2c1 [Example 43, (S)-3-(4-(3-Aminopyrrolidine-1-carbonyl)-2-(cyclopropylmethyl)-1-oxo-1,2-dihydroisoquinolin-6-yl)-N-cyclopropyl-4-methylbenzamide]
25.1 nM | Cc1ccc(C(=O)NC2CC2)cc1-c1ccc2c(=O)n(CC3CC3)cc(C(=O)NCCCN3CCCC3)c2c1 [Example 44, 6-(5-(Cyclopropylcarbamoyl)-2-methylphenyl)-2-(cyclopropylmethyl)-1-oxo-N-(3-(pyrrolidin-1-yl)propyl)-1,2-dihydroisoquinoline-4-carboxamide]
2.51 nM | Cc1ccc(C(=O)NC2CC2)cc1-c1ccc2c(=O)n(CC3CC3)cc(C(=O)N3CCC(N(C)C)CC3)c2c1 [Example 45, N-Cyclopropyl-3-(2-(cyclopropylmethyl)-(4-(dimethylamino)piperidine-1-carbonyl)-1-oxo-1,2-dihydroisoquinolin-6-yl)-4-methylbenzamide]
25.1 nM | Cc1ccc(C(=O)NC2CC2)cc1-c1ccc2c(=O)n(CC3CC3)cc(C(=O)N3CCN(CCN(C)C)CC3)c2c1 [Example 46, N-Cyclopropyl-3-(2-(cyclopropylmethyl)-4-(4-(2-(dimethylamino)ethyl)piperazine-1-carbonyl)-1-oxo-1,2-dihydroisoquinolin-6-yl)-methylbenzamide]
2.51 nM | Cc1ccc(C(=O)NC2CC2)cc1-c1ccc2c(=O)n(Cc3ccccc3)cc(C(=O)NCCN3CCCCC3)c2c1 [Example 48, 2-Benzyl-6-(5-(cyclopropylcarbamoyl)-2-methylphenyl)-1-oxo-N-(2-(piperidin-1-yl)ethyl)-1,2-dihydroisoquinoline-4-carboxamide]
3.16 nM | Cc1ccc(C(=O)NC2CC2)cc1-c1ccc2c(=O)n(Cc3ccccc3)cc(C(=O)NCCN3CCCC3)c2c1 [Example 49, 2-Benzyl-6-{5-[(cyclopropylamino)carbonyl]-2-methylphenyl}-1-oxo-N-(2-pyrrolidin-1-ylethyl)-1,2-dihydroisoquinoline-4-carboxamide]
2 nM | Cc1ccc(C(=O)NC2CC2)cc1-c1ccc2c(=O)n(Cc3ccccc3)cc(C(=O)NC3CCN(C)CC3)c2c1 [Example 50, 2-Benzyl-6-{5-[(cyclopropylamino)carbonyl]-2-methylphenyl}-N-(1-methylpiperidin-4-yl)-1-oxo-1,2-dihydroisoquinoline-4-carboxamide]
2 nM | Cc1ccc(C(=O)NC2CC2)cc1-c1ccc2c(=O)n(Cc3ccccc3)cc(C(=O)NCCCN(C)C)c2c1 [Example 51, 2-Benzyl-6-{5-[(cyclopropylamino)carbonyl]-2-methylphenyl}-N-[3-(dimethylamino)propyl]-1-oxo-1,2-dihydroisoquinoline-4-carboxamide]
10 nM | Cc1ccc(C(=O)NC2CC2)cc1-c1ccc2c(=O)n(Cc3ccccc3)cc(C(=O)N3CCN(CCO)CC3)c2c1 [Example 52, 3-(2-Benzyl-4-{[4-(2-hydroxyethyl)piperazin-1-yl]carbonyl}-1-oxo-1,2-dihydroisoquinolin-6-yl)-N-cyclopropyl-4-methylbenzamide]
2 nM | Cc1ccc(C(=O)NC2CC2)cc1-c1ccc2c(=O)n(Cc3ccccc3)cc(C(=O)N3CC[C@@H](N)C3)c2c1 [Example 53, (R)-3-(4-(3-Aminopyrrolidine-1-carbonyl)-2-benzyl-1-oxo-1,2-dihydroisoquinolin-6-yl)-N-cyclopropyl-4-methylbenzamide]
25.1 nM | Cc1ccc(C(=O)NC2CC2)cc1-c1ccc2c(=O)n(Cc3ccncc3)cc(C(=O)N3CCC(N4CCCC4)CC3)c2c1 [Example 54, N-Cyclopropyl-4-methyl-3-(1-oxo-2-(pyridin-4-ylmethyl)-4-(4-(pyrrolidin-1-yl)piperidine-1-carbonyl)-1,2-dihydroisoquinolin-6-yl)benzamide]
